Test results reported in patent US10695310B2, “D-serine treatment for neurological disorders that cause seizures” (Florida State University Research Foundation, Inc., priority 2013, dated 2020).

How the values were obtained:
pilocarpine treated rats = experiment: Video-monitored seizure activity in pilocarpine treated rats (temporal lobe epilepsy model), D-serine infused at the medial entorhinal cortex; assay type: in vivo, Sprague-Dawley rats
Protocol: (§1) Male Sprague-Dawley rats weighing about 200 grams were treated with a single systemic treatment of the cholinergic muscarinic agonist pilocarpine to mimic temporal lobe epilepsy as described by Kumar and Buckmaster in Journal of Neuroscience 26: 4613-4623 (2006), which is incorporated by reference herein. The rats were unilaterally implanted with a brain cannula and allowed to recover for three days prior to being treated with pilocarpine. The pilocarpine dose was 380 mg/kg. Following control of status epilepticus with diazepam and a latent period, 90% of the pilocarpine treated rats developed chronic spontaneous seizures with an underlying pathology that mimicked the kind seen in human patients with temporal lobe epilepsy. After pilocarpine treatment, a test group of rats was administered D-serine and a control group of rats was administered aCSF daily for 12 days. The first administration occurred two hours after pilocarpine treatment. The rats were video-monitored forty hours per week for frank seizure activity for the duration of the infusions.

[1] = test system: LIII of the medial entorhinal cortex; experiment: Stereological cell count in LIII of the medial entorhinal cortex, Nissl-stained brain slices of pilocarpine treated rats; assay type: in vivo, Sprague-Dawley rats
Protocol: as §1, with “infusions. Following the treatment regimen, the rats were euthanized and their brains removed following intra-aortal perfusion with a fixative. Horizontal brain slices 50 micrometers thick from both groups were Nissl-stained for stereological quantification of cell populations in LIII of the medial entorhinal cortex.” for “infusions.”

[2] = test system: GluN3-containing triheteromeric NMDARS; experiment: NMDAR-mediated EPSC at L1 synapses; assay type: cell-based, Sprague-Dawley rats; conditions: 10 and 100 micromolar; pure NMDAR-mediated EPSC, +30 mV; suppression greatest at the higher concentration
Source text: (§2) FIG. 6 is a set of graphs showing the effect of D-serine on EPSCs for L1 and Str synapses of rat brains. The left panel depicts the average consecutive records (≤10) of pure NMDAR-mediated EPSC (pharmacologically isolated in a mixture containing NBQX and picrotoxin—PTX 50 micromolar, —to block AMPA-kainite receptors and GABAA-mediated inhibition) evoked in a single neuron (+30 mV) under the indicated conditions. The middle panel depicts the average percentage change in amplitude for both responses and the time course of these changes with D-serine administration times marked by the shaded region on the time plots.
(§3) The NMDARs at L1 inputs are GluN3-containing triheteromeric NMDARS, whereas the NMDARs at Str inputs are conventional diheteroemric NMDARs. To directly investigate Ca(2+)-permeability of NMDARs at L1 and Str synapses of Sprague-Dawley rats, shifts in reversal potential (Erev) of the synaptically activated currents were measured during local perfusion of isosmotic solutions with different extracellular Ca(2+) concentrations.

[3] = biological target: T1, conventional diheteroemric NMDARs (Rattus norvegicus, UniProt P35439); experiment: NMDAR-mediated EPSC at Str synapses; assay type: cell-based, Sprague-Dawley rats; conditions: 10 and 100 micromolar; pure NMDAR-mediated EPSC, +30 mV
T1 construct: effect of D-serine on EPSCs for L1 and Str synapses of rat brains; from tissue; host or cells: rat brain; synaptic currents recorded from single neurons (Str input)
Source text: as §2, §3

N[C@H](CO)C(=O)O [D-serine]
percentage of pilocarpine treated rats that developed seizures (pilocarpine treated rats; D-serine daily for 12 days, 90% without D-serine): 25%
rats seizure-free (pilocarpine treated rats; pilocarpine treated rats, D-serine daily for 12 days via brain cannula, video-monitored forty hours per week): 75%
Mean est. cell count (left + right) ([1]; LIII of medial entorhinal cortex, after 12 days treatment following pilocarpine, naive control 159 ± 21, vehicle 77 ± 1): 140 ± 10
reduction of cell loss in LIII ([1]; after pilocarpine treatment): about 80%
cell loss in LIII from brain slice images ([1]; left medial entorhinal cortex of cannulated rats, FIG. 3): prevented cell loss in LIII
effect on L1 EPSCs [2]: significantly suppressed
effect on Str EPSCs [3]: neither consistent nor statistically significant
